Among the data in PubChem BioAssay (NCI) are GI50 and TGI values, retold here.

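Exposure lasted 48 hours, with cells grown in 96-well plates and compounds tested at five concentrations. GI50: concentration for 50% inhibition of growth. At the TGI there is no net growth.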

Among the test systems are HL-60(TB) leukemia; EKVX NSCLC; MDA-MB-435; T-47D breast; BT-549 breast; LOX IMVI melanoma; M14 melanoma; NCI/ADR-RES ovarian.
Holding throughout (assay): NCI anticancer screen, dose series, 48 h

Consider `COc1cc2cc(Oc3ccc(NC(=O)c4ccc(Cl)c(Cl)c4)cc3)c(C)nc2cc1OC`, for which the GI50 was more than 100 µM in the test on HL-60(TB) leukemia; 6.8 µM in the test on EKVX NSCLC; more than 100 µM in the test on MDA-MB-435; 3.28 µM in the test on T-47D breast; 3.91 µM with BT-549 breast; more than 100 µM with LOX IMVI melanoma. Moreover, the TGI in the test on HL-60(TB) leukemia, in the test with EKVX NSCLC, with MDA-MB-435, with T-47D breast, in the test on BT-549 breast and in the test on LOX IMVI melanoma was more than 100 µM throughout.
On to `COc1ccc(/C=C(\C)[N+](=O)[O-])cc1OC`, for which the GI50 in the test on M14 melanoma is 1.96 µM; in the test on MDA-MB-435, 1.86 µM; in the test on NCI/ADR-RES ovarian it was 3.55 µM; in the test on T-47D breast, 1.88 µM; with BT-549 breast, 1.86 µM; in the test on LOX IMVI melanoma, 1.36 µM. In addition, the TGI with M14 melanoma amounted to 3.95 µM; with MDA-MB-435 it was 3.94 µM; in the test on NCI/ADR-RES ovarian, 13.4 µM; with T-47D breast, 5.1 µM; in the test with BT-549 breast, 3.36 µM; with LOX IMVI melanoma, 2.97 µM.
Consider `O=c1c2cc(F)ccc2sc2c(NCCCNCCO)nc3ccccc3c12`, for which the GI50 with HL-60(TB) leukemia is 2 µM; in the test on EKVX NSCLC, 1.67 µM; in the test with M14 melanoma, 1.87 µM; with MDA-MB-435, 1.79 µM; with NCI/ADR-RES ovarian it was 1.78 µM; with BT-549 breast, 8.7 µM. In the test with LOX IMVI melanoma, the GI50 is 1.68 µM. The TGI in the test on HL-60(TB) leukemia was found to be 4.02 µM; in the test on EKVX NSCLC it was 3.47 µM; in the test on M14 melanoma, 3.62 µM; in the test with MDA-MB-435, 3.4 µM; with NCI/ADR-RES ovarian it was 3.44 µM; in the test with BT-549 breast, 22 µM. Besides, in the test on LOX IMVI melanoma, the TGI is 3.17 µM.
As to `CCC(=O)Nc1ccc(N2C(=O)/C(=C/c3ccc(OC)cc3)N=C2c2ccccc2)cc1`, the GI50 in the test with HL-60(TB) leukemia is 23.7 µM; in the test on EKVX NSCLC it was 42.9 µM; in the test on M14 melanoma, 8.6 µM; in the test on MDA-MB-435 it was 20.5 µM; in the test on NCI/ADR-RES ovarian it was 9.77 µM; in the test with BT-549 breast, 10.9 µM. In addition, in the test with LOX IMVI melanoma, the GI50 was 2.51 µM. The TGI was more than 50 µM in the test on HL-60(TB) leukemia; more than 50 µM with EKVX NSCLC; 43.3 µM with M14 melanoma; more than 50 µM in the test on MDA-MB-435; more than 50 µM in the test on NCI/ADR-RES ovarian; 36.4 µM in the test on BT-549 breast. For the same molecule, the TGI in the test with LOX IMVI melanoma was 13.2 µM.
For `COc1cc(C(=O)c2cc(C)c3[nH]c4ccc(O)cc4c3c2C)cc(OC)c1OC`, the GI50 in the test on HL-60(TB) leukemia was 0.0246 µM; in the test with EKVX NSCLC, 0.0466 µM; in the test on M14 melanoma it was 0.0185 µM; with MDA-MB-435, less than 0.01 µM; in the test on NCI/ADR-RES ovarian it was less than 0.01 µM; in the test on BT-549 breast, less than 0.0164 µM. Besides, the GI50 in the test on LOX IMVI melanoma is less than 0.0143 µM. Moreover, the TGI was 0.0797 µM with HL-60(TB) leukemia; more than 100 µM in the test on EKVX NSCLC; more than 100 µM in the test on M14 melanoma; 0.018 µM in the test with MDA-MB-435; 1.26 µM with BT-549 breast; more than 100 µM in the test on LOX IMVI melanoma.
Take `Cc1ccncc1C(N)=O`: the GI50 in the test on HL-60(TB) leukemia, with EKVX NSCLC, with M14 melanoma, with MDA-MB-435, in the test on NCI/ADR-RES ovarian and with T-47D breast was more than 100 µM throughout. For the same molecule, in the test with LOX IMVI melanoma, the GI50 is more than 100 µM. Also, the TGI with HL-60(TB) leukemia, with EKVX NSCLC, in the test with M14 melanoma, in the test on MDA-MB-435, in the test on NCI/ADR-RES ovarian and with T-47D breast was more than 100 µM throughout. In the test on LOX IMVI melanoma, this molecule had a TGI of more than 100 µM.
With `Fc1cccc(F)c1C(Nc1nncs1)Nc1nncs1`, the TGI in the test on M14 melanoma, with MDA-MB-435, in the test with NCI/ADR-RES ovarian, in the test with T-47D breast and in the test with BT-549 breast was more than 100 µM in each case.
Consider `N#CCCNc1nonc1-c1nc2ccccc2n1CC(=O)c1ccc(NC(=O)[C@@H](N)CCCCN)cc1`, for which the GI50 was 0.0317 µM in the test on HL-60(TB) leukemia; 0.0199 µM in the test with M14 melanoma; more than 73.8 µM in the test on T-47D breast; 0.0311 µM in the test on BT-549 breast; 0.0513 µM in the test on LOX IMVI melanoma. Moreover, the TGI with M14 melanoma was 0.0685 µM; in the test on MDA-MB-435, 0.0742 µM; in the test on T-47D breast, more than 100 µM; with LOX IMVI melanoma, more than 100 µM.
For `CN=C1OC2(c3ccccc3)C3=C(OC(=NC)N2C)C(=O)OC3(c2ccccc2)N1C` (configuration not stated), the TGI in the test on HL-60(TB) leukemia, in the test on EKVX NSCLC, in the test with M14 melanoma, in the test on NCI/ADR-RES ovarian, in the test with T-47D breast and in the test with BT-549 breast was more than 100 µM throughout.
Take `C=C1[C@@H](O)O[C@H]2[C@H]1C[C@H](OC(C)=O)[C@]13C(=O)O[C@H]4C[C@](C)(O)[C@H]([C@H]41)C31C=C(C)[C@]2(O)O1`: the GI50 in the test on HL-60(TB) leukemia was 61.8 µM; with MDA-MB-435, 13.3 µM; in the test with NCI/ADR-RES ovarian it was 28 µM; with T-47D breast, more than 100 µM; in the test on LOX IMVI melanoma it was 29.6 µM. The TGI is more than 100 µM in the test on HL-60(TB) leukemia; 0.0269 µM in the test on EKVX NSCLC; more than 100 µM in the test with MDA-MB-435; 80.8 µM in the test with NCI/ADR-RES ovarian; more than 100 µM in the test on T-47D breast; more than 100 µM in the test on LOX IMVI melanoma.
As for `COc1ccc(NC(=O)C(=O)/C=C(\O)c2ccccc2)cc1`, the TGI is more than 10 µM in the test on HL-60(TB) leukemia; more than 10 µM in the test with EKVX NSCLC; more than 10 µM in the test with M14 melanoma; more than 10 µM in the test on MDA-MB-435; more than 10 µM in the test with T-47D breast; 5.27 µM in the test with LOX IMVI melanoma.
As to `CC(CO)(Nc1ccc([N+](=O)[O-])cc1[N+](=O)[O-])C(=O)O` (configuration not stated), the TGI in the test with HL-60(TB) leukemia was 35.4 µM; in the test with EKVX NSCLC it was 71.3 µM; with M14 melanoma, more than 100 µM; with MDA-MB-435, 44.9 µM; with NCI/ADR-RES ovarian it was more than 100 µM; in the test on BT-549 breast it was 67.2 µM. In the test with LOX IMVI melanoma, the TGI is 48.2 µM.
`CNNC(=NS(=O)(=O)c1cc(C#N)c(NNC)cc1S)NNC`: the TGI in the test on HL-60(TB) leukemia, in the test with EKVX NSCLC, in the test on M14 melanoma, with NCI/ADR-RES ovarian, with T-47D breast and with BT-549 breast was more than 10 µM each time. The TGI in the test with LOX IMVI melanoma was more than 10 µM.
As to `C/C(=N\O)c1cccc(Nc2cc(-n3ccnc3)c3ccccc3n2)c1`, the GI50 in the test with EKVX NSCLC is 13.2 µM; in the test with M14 melanoma, 11.6 µM; with MDA-MB-435, 10.9 µM; in the test on NCI/ADR-RES ovarian, 17.2 µM; in the test with T-47D breast it was 9.32 µM; with BT-549 breast, 17 µM. The TGI with EKVX NSCLC worked out at 28.1 µM; with M14 melanoma it was 24.1 µM; in the test on MDA-MB-435 it was 24.4 µM; in the test with NCI/ADR-RES ovarian, 59.2 µM; with T-47D breast, 35.8 µM; in the test with BT-549 breast, 35.1 µM.
With `Cc1ccc(C2C3Cc4ccccc4C3=NN2c2ccc(S(=O)(=O)/N=c3\scc(-c4ccccc4)n3-c3ccccc3)cc2)cc1` (configuration not stated), the GI50 in the test with HL-60(TB) leukemia is 14.5 µM; in the test on EKVX NSCLC, 21.5 µM; in the test on M14 melanoma it was 30.6 µM; in the test on MDA-MB-435 it was 17.6 µM; in the test with T-47D breast, 35.5 µM; in the test on BT-549 breast it was 18.8 µM. Moreover, in the test on LOX IMVI melanoma, the GI50 is 17.4 µM. Moreover, the TGI with HL-60(TB) leukemia was 31.5 µM; in the test on EKVX NSCLC it was 65.7 µM; in the test on M14 melanoma, more than 100 µM; with MDA-MB-435, 37.7 µM; in the test with T-47D breast it was more than 100 µM; in the test on BT-549 breast, 43.3 µM. In addition, the TGI in the test on LOX IMVI melanoma stood at 31.2 µM.
As to `CCOC(=O)c1cc2c(cc1Cl)SC(=Nc1ccccc1)N(S(=O)(=O)c1ccc(Br)s1)S2(=O)=O`, the GI50 is 15.5 µM with EKVX NSCLC; 15.2 µM in the test on M14 melanoma; 13.4 µM with MDA-MB-435; 17.5 µM in the test with NCI/ADR-RES ovarian; 15.6 µM in the test on T-47D breast; 17.3 µM in the test on BT-549 breast. In addition, the GI50 in the test on LOX IMVI melanoma is 11.2 µM. For the same molecule, the TGI in the test with EKVX NSCLC turned out to be 32.3 µM; in the test on M14 melanoma, 35 µM; with MDA-MB-435 it was 28.3 µM; in the test with NCI/ADR-RES ovarian, 37.6 µM; in the test with T-47D breast it was 53.9 µM; in the test on BT-549 breast it was 34.8 µM. The same molecule yielded a TGI in the test on LOX IMVI melanoma of 24.1 µM.
In the case of `O=C(Nc1ccccc1OC(=O)c1ccccc1)c1ccccc1`, the GI50 is 7.45 µM in the test with EKVX NSCLC; 25.3 µM in the test with M14 melanoma; 24.5 µM with MDA-MB-435; 19.2 µM in the test on NCI/ADR-RES ovarian; 41.9 µM in the test with T-47D breast; 3.92 µM with LOX IMVI melanoma. Also, the TGI in the test with EKVX NSCLC, with M14 melanoma, with MDA-MB-435, in the test on NCI/ADR-RES ovarian, in the test on T-47D breast and with LOX IMVI melanoma was more than 100 µM each time.
Turning to `COc1ccc(C(=O)/C=C/c2ccc(OCC#N)cc2)cc1`, the TGI in the test on EKVX NSCLC was more than 100 µM; in the test with M14 melanoma, 42 µM; in the test with MDA-MB-435, 59.3 µM; with NCI/ADR-RES ovarian, 50 µM; with T-47D breast, 46 µM; in the test on BT-549 breast, 31.6 µM.
Turning to `COc1cc2ncc3c(nc4sccn43)c2cc1OC`, the GI50 with EKVX NSCLC is 20.7 µM; in the test with M14 melanoma it was 16.4 µM; in the test with MDA-MB-435, 27.2 µM; in the test on NCI/ADR-RES ovarian it was 93.3 µM; with T-47D breast, 29.2 µM; in the test with BT-549 breast, 37.1 µM. Besides, in the test on LOX IMVI melanoma, the GI50 is 15.6 µM. For the same molecule, the TGI with EKVX NSCLC is more than 100 µM; in the test on M14 melanoma, 78.2 µM; with MDA-MB-435 it was more than 100 µM; with NCI/ADR-RES ovarian, more than 100 µM; in the test on T-47D breast, more than 100 µM; in the test on BT-549 breast, more than 100 µM. The TGI with LOX IMVI melanoma is more than 100 µM.
